Measured values from ChEMBL document CHEMBL1132820, “DNA minor groove interactions and the biological activity of 2,5-bis” (Bioorg Med Chem Lett, 2000).

How the values were obtained:
Rattus norvegicus [1] = test: Number of mean cysts/g of lung tissue observed at 9-10 uM/kg/day dose of compound tested in vivo against Pneumocystis carinii pneumonia infected rats; assay type: functional
Rattus norvegicus [2] = test: Number of mean cysts/g of lung tissue observed at 0.9 uM/kg/day dose of compound tested in vivo against Pneumocystis carinii pneumonia infected rats; assay type: functional

Row | Structure (SMILES) | PCP activity (Rattus norvegicus [1]) | PCP activity (Rattus norvegicus [2])
1 | N=C(NC1CCCCC1)c1ccc(-c2ccc(-c3ccc(C(=N)NC4CCCCC4)cc3)o2)cc1 | 0.02 cysts g-1 | 26.2 cysts g-1
2 | N=C(NC1CCC1)c1ccc(-c2ccc(-c3ccc(C(=N)NC4CCC4)cc3)o2)cc1 | 0.05 cysts g-1 | 0.67 cysts g-1
3 | N=C(NC1CCCC1)c1ccc(-c2ccc(-c3ccc(C(=N)NC4CCCC4)cc3)o2)cc1 | 0.03 cysts g-1 | 0.11 cysts g-1
